Assay results from patent US8415272B2, “Quinoline derivatives and their use as fungicides” (Syngenta Crop Protection LLC, priority 2008, dated 2013).

Key:
[1] = test system: Phytophthora infestans; experiment: whole plant or invertebrate; assay type: in vivo; conditions: in Solanum lycopersicum, foliar, 96 h, read-out: control of fungal infection, Phytophthora infestans
[2] = test system: Plasmopara viticola; experiment: Leaf disk assay, Plasmopara viticola (downy mildew of grapevine), preventive; assay type: in vivo; conditions: foliar, 168 h, grapevine leaf disks, assessed seven days after inoculation, read-out: control of fungal infection, Plasmopara viticola
[3] = test system: Botrytis cinerea; experiment: Leaf disk assay, Botrytis cinerea (grey mould) on bean, preventive; assay type: in vivo; conditions: foliar, 96 h, bean leaf disks, assessed four days after inoculation, read-out: control of fungal infection, Botrytis cinerea
[4] = test system: Erysiphe graminis f.sp. tritici; experiment: Leaf disk assay, Erysiphe graminis f.sp. tritici (wheat powdery mildew), preventive; assay type: in vivo; conditions: Blumeria graminis, foliar, 96 h, wheat leaf segments, assessed four days after inoculation, read-out: control of fungal infection, Erysiphe graminis f.sp. tritici
Procedure, shortened: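 Wheat leaf segments on agar were sprayed with compound at 200 ppm (DMSO stock diluted in water). After 12–24 h drying they were inoculated with powdery mildew spores. Preventive activity was scored 4 days after inoculation.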

[5] = test system: Pyricularia oryzae; experiment: whole plant or invertebrate; assay type: in vivo; conditions: foliar, 96 h, read-out: control of fungal infection, Pyricularia oryzae
[6] = test system: Puccinia recondita f.sp. tritici; experiment: Leaf disk assay, Puccinia recondita f.sp. tritici (wheat brown rust), preventive; assay type: in vivo; conditions: foliar, 216 h, wheat leaf segments, assessed nine days after inoculation, read-out: control of fungal infection, Puccinia recondita f.sp. tritici
[7] = test system: Pyrenophora teres; experiment: Leaf disk assay, Pyrenophora teres (barley net blotch), preventive; assay type: in vivo; conditions: foliar, 96 h, barley leaf segments, assessed four days after inoculation, read-out: control of fungal infection, Pyrenophora teres
Procedure, shortened: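 Barley leaf segments on agar were sprayed with compound at 200 ppm (from DMSO stock diluted in water) and dried for 12-24 h before inoculation with a Pyrenophora teres spore suspension. Preventive fungicidal activity was scored 4 days after inoculation.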

[8] = test system: Septoria nodorum; experiment: Leaf disk assay, Septoria nodorum (wheat glume blotch), preventive; assay type: in vivo; conditions: Parastagonospora nodorum, foliar, 96 h, wheat leaf segments, assessed four days after inoculation, read-out: control of fungal infection, Septoria nodorum
[9] = test system: Septoria tritici; experiment: Growth inhibition in nutrient broth, Septoria tritici (leaf blotch), photometric; assay type: cell-based; conditions: Zymoseptoria tritici, PDB broth, 24 C, 72 hrs, read-out: control of fungal infection, Septoria tritici
[10] = test system: Fusarium culmorum; experiment: Growth inhibition in nutrient broth, Fusarium culmorum (root rot), photometric; assay type: cell-based; conditions: 48 h, read-out: control of fungal infection, Fusarium culmorum
Procedure, shortened: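 Fusarium culmorum conidia in potato dextrose broth were added to compounds in DMSO. Plates were incubated at 24 C for 48 hrs, with growth inhibition read photometrically. […]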

[11] = test system: Pythium ultimum; experiment: Growth inhibition in potato dextrose broth, Pythium ultimum (damping off), photometric; assay type: cell-based; conditions: Globisporangium ultimum, 24° C., 48 hours, read-out: control of fungal infection, Pythium ultimum
Procedure, shortened: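 Growth inhibition was read photometrically at 48 hours after incubation at 24° C. Test compound was diluted from DMSO to 20 ppm in water and combined with potato dextrose broth seeded with Pythium ultimum mycelial fragments.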

SMILES: C#Cc1cnc2ccc(OC(SC)C(=O)NC3(C)CSC3)cc2c1 (stereo not drawn) [Compound 224, 2-(3-Ethynyl-quinolin-6-yloxy)-2-methylsulfanyl-N-(3-methyl-thietan-3-yl)-acetamide]
- melting point: 132 to 134 °C

SMILES: C#Cc1cnc2c(C)cc(OC(SC)C(=O)NC(C)(C)COC)cc2c1 (stereo not drawn) [Example 13]
- pest or weed control at 200 ppm [1]: ≥ 60%
- pest or weed control at 200 ppm [2]: ≥ 60%
- pest or weed control at 200 ppm [3]: ≥ 60%
- pest or weed control at 200 ppm [4]: ≥ 60%
- pest or weed control at 200 ppm [5]: ≥ 60%
- pest or weed control at 200 ppm [6]: ≥ 60%
- pest or weed control at 200 ppm [7]: ≥ 60%
- pest or weed control at 200 ppm [8]: ≥ 60%
- inhibition of growth at 60 ppm [9]: ≥ 60%
- inhibition of growth at 60 ppm [10]: ≥ 60%
- inhibition of growth at 20 ppm [11]: ≥ 60%

SMILES: C#Cc1cnc2c(C)cc(OC(SC)C(=O)NC(C)(C#N)COC)cc2c1 (stereo not drawn) [Example 12]
- pest or weed control at 200 ppm [1]: ≥ 60%
- pest or weed control at 200 ppm [2]: ≥ 60%
- pest or weed control at 200 ppm [4]: ≥ 60%
- pest or weed control at 200 ppm [5]: ≥ 60%
- pest or weed control at 200 ppm [6]: ≥ 60%
- pest or weed control at 200 ppm [8]: ≥ 60%
- inhibition of growth at 60 ppm [9]: ≥ 60%
- inhibition of growth at 20 ppm [11]: ≥ 60%

SMILES: C#CCOCC(C)(C)NC(=O)C(Oc1cc(C)c2ncc(C#C)cc2c1)SC (stereo not drawn) [Example 14]
- pest or weed control at 200 ppm [1]: ≥ 60%
- pest or weed control at 200 ppm [2]: ≥ 60%
- pest or weed control at 200 ppm [3]: ≥ 60%
- pest or weed control at 200 ppm [4]: ≥ 60%
- pest or weed control at 200 ppm [5]: ≥ 60%
- pest or weed control at 200 ppm [6]: ≥ 60%
- pest or weed control at 200 ppm [7]: ≥ 60%
- pest or weed control at 200 ppm [8]: ≥ 60%
- inhibition of growth at 60 ppm [9]: ≥ 60%
- inhibition of growth at 60 ppm [10]: ≥ 60%
- inhibition of growth at 20 ppm [11]: ≥ 60%

SMILES: C#CCOCC(C)(COCC#C)NC(=O)C(Oc1ccc2ncc(C#C)cc2c1)SC (stereo not drawn) [Example 12c, 2-(3-ethynyl-quinolin-6-yloxy)-N-(1-methyl-2-prop-2-ynyloxy-1-prop-2-ynyloxymethyl-ethyl)-2-methylsulfanyl-acetamide]
- melting point: 95 to 100 °C

SMILES: C#Cc1cnc2cc(F)c(OC(SC)C(=O)NC(C)(C#N)COC)cc2c1 (stereo not drawn) [Example 6]
- pest or weed control at 200 ppm [1]: ≥ 60%
- pest or weed control at 200 ppm [2]: ≥ 60%
- pest or weed control at 200 ppm [4]: ≥ 60%
- pest or weed control at 200 ppm [5]: ≥ 60%
- pest or weed control at 200 ppm [6]: ≥ 60%
- pest or weed control at 200 ppm [8]: ≥ 60%
- inhibition of growth at 60 ppm [9]: ≥ 60%
- inhibition of growth at 20 ppm [11]: ≥ 60%

SMILES: C#Cc1cnc2c(Cl)cc(OC(SC)C(=O)NC3(C)CCC3)cc2c1 (stereo not drawn) [Compound 203, 2-(8-Chloro-3-ethynyl-quinolin-6-yloxy)-N-(1-methyl-cyclobutyl)-2-methylsulfanyl-acetamide]
- melting point: 121 to 123 °C

SMILES: C#Cc1cnc2c(C)cc(OC(SC)C(=O)NC(C)(C)C#C)cc2c1 (stereo not drawn) [Example 7]
- pest or weed control at 200 ppm [1]: ≥ 60%
- pest or weed control at 200 ppm [2]: ≥ 60%
- pest or weed control at 200 ppm [5]: ≥ 60%
- pest or weed control at 200 ppm [7]: ≥ 60%
- pest or weed control at 200 ppm [8]: ≥ 60%
- inhibition of growth at 60 ppm [9]: ≥ 60%
- inhibition of growth at 60 ppm [10]: ≥ 60%
- inhibition of growth at 20 ppm [11]: ≥ 60%

SMILES: C#Cc1cnc2ccc(OC(SC)C(=O)NC(C)(C#C)CO)cc2c1 (stereo not drawn) [Compound 173, 2-(3-Ethynyl-quinolin-6-yloxy)-N-(1-hydroxymethyl-1-methyl-prop-2-ynyl)-2-methylsulfanyl-acetamide]
- melting point: 150 to 155 °C

SMILES: C#Cc1cnc2c(C)cc(OC(SC)C(=O)NC(C)(C)C#CCOC)cc2c1 (stereo not drawn) [Example 9]
- pest or weed control at 200 ppm [1]: ≥ 60%
- pest or weed control at 200 ppm [2]: ≥ 60%
- pest or weed control at 200 ppm [4]: ≥ 60%
- pest or weed control at 200 ppm [5]: ≥ 60%
- pest or weed control at 200 ppm [6]: ≥ 60%
- pest or weed control at 200 ppm [8]: ≥ 60%
- inhibition of growth at 60 ppm [9]: ≥ 60%
- inhibition of growth at 60 ppm [10]: ≥ 60%
- inhibition of growth at 20 ppm [11]: ≥ 60%

SMILES: C#Cc1cnc2c(C)cc(OC(SC)C(=O)NC(C)(C)C#CC)cc2c1 (stereo not drawn) [Example 8]
- pest or weed control at 200 ppm [1]: ≥ 60%
- pest or weed control at 200 ppm [2]: ≥ 60%
- pest or weed control at 200 ppm [3]: ≥ 60%
- pest or weed control at 200 ppm [5]: ≥ 60%
- pest or weed control at 200 ppm [7]: ≥ 60%
- pest or weed control at 200 ppm [8]: ≥ 60%
- inhibition of growth at 60 ppm [9]: ≥ 60%
- inhibition of growth at 60 ppm [10]: ≥ 60%
- inhibition of growth at 20 ppm [11]: ≥ 60%

SMILES: C#Cc1cnc2ccc(OC(SC)C(=O)NC(C)(C#C)CO)cc2c1 (stereo not drawn) [Compound 160, 2-(3-ethynyl-quinolin-6-yloxy)-N-(1-hydroxymethyl-1-methylprop-2-ynyl)-2-methylsulfanyl-acetamide]
- melting point: 149 to 150 °C

SMILES: C#CCC(C)(C)NC(=O)C(Oc1cc(C)c2ncc(C#C)cc2c1)SC (stereo not drawn) [Example 16]
- pest or weed control at 200 ppm [1]: ≥ 60%
- pest or weed control at 200 ppm [2]: ≥ 60%
- pest or weed control at 200 ppm [4]: ≥ 60%
- pest or weed control at 200 ppm [5]: ≥ 60%
- pest or weed control at 200 ppm [6]: ≥ 60%
- pest or weed control at 200 ppm [7]: ≥ 60%
- pest or weed control at 200 ppm [8]: ≥ 60%
- inhibition of growth at 60 ppm [9]: ≥ 60%
- inhibition of growth at 60 ppm [10]: ≥ 60%
- inhibition of growth at 20 ppm [11]: ≥ 60%

SMILES: C#Cc1cnc2ccc(OC(SC)C(=O)NC3COC3)cc2c1 (stereo not drawn) [Compound 178, 2-(3-Ethynyl-quinolin-6-yloxy)-2-methylsulfanyl-N-oxetan-3-yl-acetamide]
- melting point: 98 to 100 °C

SMILES: C#Cc1cnc2ccc(OC(SC)C(=O)NC(C)(C#N)CO)cc2c1 (stereo not drawn) [Example 12d, N-(1-cyano-2-hydroxy-1-methyl-ethyl)-2-(3-ethynyl-quinolin-6-yloxy)-2-methylsulfanyl-acetamide]
- melting point: 78 to 80 °C

SMILES: C#Cc1cnc2c(F)cc(OC(SC)C(=O)NC(C)C)cc2c1 (stereo not drawn) [Compound 222, 2-(3-Ethynyl-8-fluoro-quinolin-6-yloxy)-N-isopropyl-2-methylsulfanyl-acetamide]
- melting point: 135 to 136 °C

SMILES: C#CCOCC#CC(C)(C)NC(=O)C(Oc1cc(C)c2ncc(C#C)cc2c1)SC (stereo not drawn) [Example 10]
- pest or weed control at 200 ppm [1]: ≥ 60%
- pest or weed control at 200 ppm [2]: ≥ 60%
- pest or weed control at 200 ppm [4]: ≥ 60%
- pest or weed control at 200 ppm [5]: ≥ 60%
- pest or weed control at 200 ppm [8]: ≥ 60%
- inhibition of growth at 60 ppm [9]: ≥ 60%
- inhibition of growth at 60 ppm [10]: ≥ 60%
- inhibition of growth at 20 ppm [11]: ≥ 60%

SMILES: C#Cc1cnc2c(C)cc(OC(SC)C(=O)NC(C)(C)CO)cc2c1 (stereo not drawn) [Example 15]
- pest or weed control at 200 ppm [1]: ≥ 60%
- pest or weed control at 200 ppm [2]: ≥ 60%
- pest or weed control at 200 ppm [5]: ≥ 60%
- pest or weed control at 200 ppm [8]: ≥ 60%
- inhibition of growth at 60 ppm [9]: ≥ 60%
- inhibition of growth at 20 ppm [11]: ≥ 60%

SMILES: C#Cc1cnc2ccc(OC(SC)C(=O)NC(C)(C)CO)cc2c1 (stereo not drawn) [Compound 168, 2-(3-ethynyl-quinolin-6-yloxy)-N-(2-hydroxy-1,1-dimethyl-ethyl)-2-methylsulfanyl-acetamide]
- melting point: 149 to 151 °C

SMILES: C#Cc1cnc2ccc(OC(SC)C(=O)NC3(C)COC3)cc2c1 (stereo not drawn) [Compound 186, 2-(3-Ethynyl-quinolin-6-yloxy)-N-(3-methyl-oxetan-3-yl)-2-methylsulfanyl-acetamide]
- melting point: 61 to 65 °C

SMILES: C#Cc1cnc2ccc(OC(SC)C(=O)NC3CSC3)cc2c1 (stereo not drawn) [Compound 223, 2-(3-Ethynyl-quinolin-6-yloxy)-2-methylsulfanyl-N-thietan-3-yl-acetamide]
- melting point: 150 to 152 °C
